A short description of this series: blood pressure and pulse of treated type 2 diabetic patients. The series is classed as in vivo, human. To be noted: type 2 diabetic patients, oral 14.5 mg dihydralazine sulphate twice daily. As to the method: After giving their informed consent, patients participating in the study were treated for 56 days taking ½ tablet twice daily of a pharmaceutical composition containing 28.9 mg dihydralazine sulphate (i.e. the ½ tablet contained 14.5 mg dihydralazine sulphate).
To measure the efficacy and monitor the safety of the treatment, the following examinations were carried out before starting the treatment and at the 1., 7., 14., 28. and 56. day of the treatment: • 1. ocular examinations: visual acuity (ETDRS chart), slit-lamp examination, measurement of intraocular pressure with applanation tonometry, fundus biomicroscopy with pupil dilation, digital fundus photography. The grade of macular edema was determined via measuring retinal thickness with optical coherency tomography (OCT). • 2. internal medicine examinations: anamnesis, physical examinations, blood pressure, pulse, urine examination. • 3. laboratory examinations: blood glucose, HbA1c, liver function, kidney function, microalbuminuria, metabolic panel of the blood , lipids, CRP.
In the table the following abbreviations were used: • BMI: body mass index - weight (kg) / height (m^2) • RRsyst: blood pressure (systolic) (Hgmm) • RRdiast: blood pressure (diastolic) (Hgmm) • OCT CST (central subfield thickness): the average thickness of the central 1-mm area of the macula • OCT CPT (center point thickness): the thickness of the center point of the retina; normally that is the thinnest point of the macula Table 4.

Take dihydralazine sulphate: the blood pressure result is recorded as “no appreciable lowering of blood pressure was observed”.

The values above are taken from patent EP2326328B1, “USE OF DIHYDRALAZINE FOR THE TREATMENT OF DISEASES RELATED TO ELEVATED SEMICARBAZIDE SENSITIVE AMINE-OXIDASE (SSAO) ACTIVITY” (Semmelweis Egyetem, priority 2008, dated 2010).
